Measured values taken from patent US12702715B2, “Targeted RNA degradation allows precision repurposing of protein-targeted small molecule medicines to RNA” (University of Florida Research Foundation, Incorporated, priority 2020, dated 2026).
Entries after “also recorded” stand apart in the source; their conditions may differ.

How the values were obtained:
PTEN = PTEN luciferase assay; type: cell-based, human; settings: MDA-MB-231
Procedure: PTEN Luciferase Assay. To study de-repression of PTEN, a luciferase-based cellular assay was performed as previously described^6. Briefly, MDA-MB-231 cells (~60% confluency) in 48-well plates were co-transfected with plasmids encoding Renilla luciferase (for normalization) and firefly luciferase fused to the 3′ UTR of PTEN by using Lipofectamine 2000 according to the manufacturer's protocol. After 5 h, the cells were treated with the compounds diluted in growth medium. Luciferase assay were then completed as previously described^4, 9.

MDA-MB-231 cells = assay: Boyden chamber invasion assay, MDA-MB-231; type: cell-based, human
Procedure: (§1) Boyden Chamber Invasion Assay. MDA-MB-231 or MCF-10A cells (5×10^4) in serum free growth medium with or without compound treatment were seeded into hanging cell culture inserts (for 24-well plates) pre-coated with Matrigel. Complete growth medium was added to the bottom well. After 16-24 h, the medium was removed, and the hanging inserts were washed with 1×DPBS twice and then fixed with 4% paraformaldehyde in 1×DPBS at room temperature for 20 min. Then the inserts were washed twice with 1×DPBS and stained with 0.1% (w/v) crystal violet 1×DPBS for 20 min. The inserts were washed twice with nanopure water and once with 1×DPBS. Cells on the surface of the Matrigel (non-invasive) were removed with cotton swabs and invading cells were counted and imaged under a microscope.

MCF-10A cells = assay: Boyden chamber invasion assay, MCF-10A; type: cell-based, human; settings: for invasion phenotype of MCF-10A acquired by transfection of mutant pre-miR-21: 1 binding site ablated
Procedure: Cell Culture. Cells were cultured at 37° C. and 5% CO2. MDA-MB-231 cells (HTB-26, ATCC) were cultured in RMPI 1640 medium with L-glutamine & 25 mM HEPES supplemented with 1× Antibiotic/Antimycotic solution (Corning) and 10% FBS. MCF-10A cells (CRL-10317, ATCC) were cultured in 1×DMEM/F12 50/50 with L-glutamine & 15 mM HEPES (Corning) supplemented with 20% FBS, 1× Antibiotic/Antimycotic solution, 20 ng/mL human epidermal growth factor (Pepro Tech, Inc.), 10 μg/mL insulin (Sigma-Aldrich), and […] hydrocortisone (Pfaltz & Bauer). For compound treatment, compound stocks either in DMSO or water were diluted in growth medium and added to cells for the indicated time. Plasmid DNA to overexpress pre-miR-21 in pcDNA 3.1 (Addgene 21114) or a plasmid DNA encoding the pre-miR-21 mutant (custom purchased from GenScript USA, Inc.) was transfected with jetPRIME per the manufacturer's protocol. After transfection, the medium was replaced with growth medium containing the compound of interest, prepared as described above. The RNase L-targeting siRNA or a control siRNA was transfected with Lipofectamine RNAiMAX reagent (Invitrogen) per the manufacturer's protocol.
as §1

pre-miR-21 WT RNA = assay: In vitro Chem-CLIP and C-Chem-CLIP, pre-miR-21 WT; type: binding, human
Procedure: In Vitro Chemical Cross-linking and Isolation by Pull Down (Chem-CLIP) and Competitive Chem-CLIP (C-Chem-CLIP). Growth medium [RMPI 1640 medium with L-glutamine & 25 mM HEPES (Corning)] was inactivated by heating at 95° C. to for 15 min and slowly cooling to room temperature at benchtop. Pre-miR-21 labeled with ^32P at the 5′-end (~10,000 counts) was folded in growth medium by heating at 95° C. for 1 min and slowly cooling to room temperature. To the samples was added Chem-CLIP probe 4 (1, 5, 20 or 100 μM) or negative control probe 5 (1, 5, 20 or 100 μM), and the mixtures were incubated at 37° C. for 1 h. The samples were then cross-linked by irradiation with 365 nm light for 10 min. The Chem-CLIP probe 4 or control probe 5, whether or not cross-linked to the RNA, was then clicked to disulfide biotin azide (10 mM in DMSO; 10 μL per sample; 1168-10, Click Chemistry Tools) by incubating in a solution containing 1×HEPES buffer (25 mM, pH 7), sodium ascorbate (10 μL/sample, 250 mM in H2O), CuSO4 (10 μL/sample, 50 mM in H2O), THPTA (10 μL/sample, 50 mM in H2O) for 2 h at 37° C. […] The radioactive signal from bound RNAs (on the beads) and unbound RNAs (from the wash steps) were measured by using a Beckman Coulter LS6500 Liquid Scintillation Counter. Enrichment of pre-miR-21 was calculated as previously described^6. […]

SMILES	PTEN expression (luciferase-based assay) (PTEN)	invasion of MDA-MB-231 cells (MDA-MB-231 cells)	invasion phenotype of MCF-10A acquired by transfection of wild type pre-miR-21 (MCF-10A cells)	invasion phenotype of MCF-10A acquired by transfection of mutant pre-miR-21 (MCF-10A cells)	invasive nature of MCF-10A cells (MCF-10A cells; no overexpression)	competition of enrichment of pre-miR-21 by 4 (pre-miR-21 WT RNA; in vitro C-Chem-CLIP)	enrichment of 32P-labeled pre-miR-21 WT (pre-miR-21 WT RNA; 1, 5, 20 or 100 μM)
CN1CCN(c2ccc3nc(-c4c(N)c5c(F)cccc5[nH]c4=O)[nH]c3c2)CC1 [Compound 1, Dovitinib, reference compound]	derepressed	inhibited invasiveness; also recorded: reduced	reverted this phenotype; also recorded: inhibited	insensitive	had no effect	competed off	
CCOC(=O)C1=C(Nc2ccccc2)S/C(=C\c2ccc(OCCOCCOCCOCCNC(=O)NCCN3CCN(c4ccc5[nH]c(-c6c(N)c7c(F)cccc7[nH]c6=O)nc5c4)CC3)c(O)c2)C1=O [Compound 2, Ribotac-Dovitinib]	derepressed	reduced the invasive characteristic		had no effect; also recorded: unable to rescue			
C#CCCC1(CCC(=O)NCCN2CCN(c3ccc4[nH]c(-c5c(N)c6c(F)cccc6[nH]c5=O)nc4c3)CC2)N=N1 [Compound 4]							dose-dependently enriched
